Experimental data as given in patent US20190375778A1, “ADENOSINE DERIVATIVES FOR USE IN THE TREATMENT OF CANCER” (NuCana plc, priority 2016, published 2019).

Key:
Assay type in all cases: cell-based
PC3 = experiment: MTT cytotoxicity assay, PC3; settings: Homo sapiens, PC-3, 96 h compound exposure, read-out: absolute IC50, PC3
Text: Lovo: cell line derived from a metastatic site in a patient with colon cancer MCF7: human oestrogen sensitive mammary epithelial cell line PC3: human prostate cancer cell line A549: cancerous lung tissue derived cells L1210: lymphoblast cell line derived from a mouse with lymphocytic leukaemia FM3A: mammary carcinoma murine cells CEM: human T-lymphoblasts, derived from the blood of a patient with acute lymphoblastic leukaemia HeLa: epithelial cells from a patient with cervical adenocarcinoma
Anti-tumour evaluation in MCF7, LoVo, A549 and PC3 cell lines was performed by MTT assay. Compounds were prepared as 0.1-100 mM stock solutions dissolved in DMSO and stored at −20° C. Cells were seeded into 96-well microtitre plates at a density of 5×10^3 cells per well and allowed 24 hours to adhere. Decimal compound dilutions were prepared in medium immediately prior to each assay (final concentration 0.1-100 μM). Experimental medium was DMEM+10% FCS (PC3 and Lovo) or RPMI+10% heat inactivated FCS (A549 and MCF7). Following 96 h compound exposure at 37° C., 5% CO2, MTT reagent (Sigma Aldrich) was added to each well (final concentration 0.5 mg/ml). Incubation at 37° C. for 4 h allowed reduction of MTT by viable cells to an insoluble formazan product. MTT was removed and formazan solubilised by addition of 10% Triton X-100 in PBS. Absorbance was read on a Tecan Sunrise spectrophotometer at 540 nm as a measure of cell viability; thus inhibition relative to control was determined (IC50).

HL-60 = experiment: ATP ViaLight cytotoxicity assay, HL-60; settings: Homo sapiens, HL-60, 72 h
Method: (§1) HL-60, CTS, and K-562 are leukaemia cell lines, which were obtained from the American Type Culture Collection (ATCC), Middlesex. HL-60 cell line is of acute promyelocytic leukaemia; CTS cell line is of acute myeloid leukaemia; and K-562 cell line is of chronic myeloid leukaemia.
(§2) HL-60, CTS, and K-562 cell lines were cultured in RPMI-1640 medium (Sigma Aldrich, UK), which was supplemented with 10% Fetal Bovine Serum (FBS) (PAA Laboratories), 1% amphotericin B (5.5 ml) and 1% penicillin/streptomycin (5.5 ml) (PAA Laboratories) and grown in flasks at 37° C. incubator with 5% CO2.
(§3) For inhibitor studies the cell lines were treated in the same way as described above but before treatment with drugs, a number of inhibitors were added: • 1) Nitrobenzylthioinosine (NBTI) (Sigma-Aldrich, St. Louis, Mo.) inhibits hENT1. • 2) A-134974 dihydrochloride hydrate (Sigma-Aldrich, St. Louis, Mo.) inhibits adenosine kinase. • 3) EHNA hydrochloride (Sigma-Aldrich, St. Louis, Mo.) inhibits adenosine deaminase.
(§4) ATP ViaLight™ plus assay kit (Lonza, USA: Product No. LT07-121) was used for treating the cells in luminescence compatible 96 well plates (initial concentration of cells was 1×10^4 cells/well) with 8-Cl-A and ProTides, concentrations: 0, 0.1, 0.5, 1, 5 and 10 μM were added to cells, respectively, followed by incubation for 72 hours at 37° C. incubator with 5% CO2. For inhibitor studies, […] concentration of each inhibitor was added before drugs and incubated for 72 hours at 37° C. with 5% CO2.
(§5) After incubation, 50 μl of cell lysis reagent was added to the 96 well plates to release the intracellular ATP, followed by 100 μl of ATP monitoring reagent (AMR). The luminescent values of each well were determined using FLUOstar OPTIMA microplate reader (BMG Labtech) which converted ATP into light by using luciferase enzyme.
(§6) The dose-response curves of cytotoxicity of the drugs was determined using non-linear regression analysis of percentage cell viability versus concentration and EC50 values were obtained. The intracellular assay was conducted in five repeats for each condition. Intracellular assay was determined using paired T test (two-tailed) analysis of 8-ChloroATP/ATP concentration and p values were obtained. Drug stability in human plasma was determined using two-way ANOVA analysis. For all the analysis, Prism Software program (GraphPad Software) was used.

CTS cell line = experiment: Intracellular 8-Cl-ATP/ATP by LC-MS/MS, CTS; settings: for difference in intracellular accumulation of 8-Cl-ATP on inhibiting hENT1: with NBTI
Method: (§7) Cell lines with 3×10^6 cells/ml were used. Cells were treated with 1 μl of 20 μM of each 8-Cl-A, compound A, compound B and compound D and incubated for 2 hours at 37° C. with 5% CO2. After incubation, the cells were centrifuged (ambient, 1200 rpm, 5 minutes), the supernatant was removed, and the pellet was washed with lml of PBS and centrifuged (ambient, 1200 rpm, 5 minutes). The supernatant was removed, the pellet was reconstituted in 100 μl of PBS and 100 μl of 0.8M perchloric acid. This was then centrifuged (ambient, 1200 rpm, 5 minutes) and 180 μl of the supernatant was transferred to new tubes and stored at −80° C. until time of analysis.
as §3
(§8) Cells were treated with 1 μl of 10 μM of each inhibitor and left for 5 minutes before adding the drug. The cells were then incubated for 2 hours at 37° C. with 5% CO2.
(§9) The analytes were resolved using an ultra-performance liquid chromatography system (Accela UPLC, Thermo Scientific, UK) equipped with a Biobasic A×5 μm, 50×2.1 mm column (Thermo Electron Corporation, Murrieta, Calif., USA) and mobile phase consisting of a mixture of 10 mM NH4Ac in ACN/H2O (30:70 v/v), pH6.0 (A), and 1 mM NH4Ac in ACN/H2O (30:70 v/v), pH10.5 (B). The mobile phase gradient was employed, comprising: buffer A=95% at 0-0.5 minutes, from 95 to 0% over 1.25 minutes, held at 0% for 1.75 minutes, from 0-95% over 0.1 minutes, ending with 95% for 2.9 minutes, all at a flow rate of 500 μl/min.
(§10) For compounds detection a triple stage quadrupole Vantage mass spectrometry system (Thermo Scientific, UK) equipped with an electrospray ion source was used. Samples were analysed in the Multiple Reaction Monitoring, negative ion modes at spray voltage 3000V.
as §6

K-562 cell line = experiment: Intracellular 8-Cl-ATP/ATP by LC-MS/MS, K-562; settings: for difference in intracellular accumulation of 8-Cl-ATP on inhibiting hENT1: K-562, with NBTI
Method: as §7, §3, §8, §9, §10, §6

CTS = experiment: ATP ViaLight cytotoxicity assay, CTS; settings: 72 h
Method: as §1, §2, §3
[…] For inhibitor studies, 10 M concentration of each inhibitor was added before drugs and incubated for 72 hours at 37° C. with 5% CO2.
as §5, §6

K-562 = experiment: ATP ViaLight cytotoxicity assay, K-562; settings: Homo sapiens, K562, 72 h
Method: as §1, §2, §3, §4, §5, §6

[1] = with A-134974 (adenosine kinase inhibitor)

SMILES | IC50 (PC3) [µM] | EC50 (HL-60; Control (no inhibitor)) [µM] | difference in intracellular accumulation of 8-Cl-ATP on inhibiting adenosine kinase (CTS cell line; with A-134974) | difference in intracellular accumulation of 8-Cl-ATP on inhibiting hENT1 (CTS cell line) | difference in 8-Cl-ATP concentration on inhibiting adenosine kinase (K-562 cell line; K-562, with A-134974) | difference in intracellular accumulation of 8-Cl-ATP on inhibiting hENT1 (K-562 cell line) | EC50 (CTS; [1]) [µM] | EC50 (CTS; with NBTI (hENT1 inhibitor)) [µM] | EC50 (HL-60; [1]) [µM] | EC50 (HL-60; with NBTI (hENT1 inhibitor)) [µM] | EC50 (K-562; Control (no inhibitor)) [µM] | EC50 (K-562; [1]) [µM] | EC50 (K-562; with NBTI (hENT1 inhibitor)) [µM] | EC50 (CTS; Control (no inhibitor)) [µM] | 8-Cl-ATP/ATP ratio after inhibiting adenosine kinase (CTS cell line; with A-134974) | 8-Cl-ATP/ATP ratio after inhibiting adenosine kinase (K-562 cell line; K-562, with A-134974)
Nc1ncnc2c1nc(Cl)n2[C@@H]1O[C@H](COP(=O)(NCC(=O)OC2CCCCC2)Oc2ccccc2)[C@@H](O)[C@H]1O (mixture of isomers) [Compound A, Cyclohexyl 2-(((((2R,3S,4R,5R)-5-(6-amino-8-chloro-9H-purin-9-yl)-3,4-dihydroxy-tetrahydrofuran-2-yl)methoxy)(phenoxy)phosphoryl)amino)acetate] | 15 to 100 | 12.4 | did not produce significant difference | did not produce significant difference | did not produce significant difference | did not produce significant difference | 28 | 270 |  |  |  |  |  |  |  | 
C[C@H](NP(=O)(OC[C@H]1O[C@@H](n2c(Cl)nc3c(N)ncnc32)C(O)C1O)Oc1cccc2ccccc12)C(=O)OCc1ccccc1 (stereo partly drawn) [Compound D, (2S)-Benzyl 2-(((((2R,3S,4R,5R)-5-(6-amino-8-chloro-9H-purin-9-yl)-3,4-dihydroxy-tetrahydrofuran-2-yl)methoxynaphthalene-1-yloxy)phosphoryl)amino)propanoate] |  | 0.33 |  | did not produce significant difference |  | did not produce significant difference | 10.3 | 1.46 | 21.3 | 1.23 | 6.63 | 19.7 | 1.73 | 2.64 |  | 
Nc1ncnc2c1nc(Cl)n2[C@@H]1O[C@H](CO)[C@@H](O)[C@H]1O [8-chloroadenosine, 8-Chloroadenosine, reference compound] | 0.1 to 5 | 0.64 |  |  |  |  |  | 5.48 |  | 0.96 | 0.64 |  | 4.69 | 0.32 | almost zero | almost zero
CC(C)C[C@H](NP(=O)(OC[C@H]1O[C@@H](n2c(Cl)nc3c(N)ncnc32)C(O)C1O)Oc1ccccc1)C(=O)OCc1ccccc1 (stereo partly drawn) [V, 5′-([(Benzyloxy-L-leucin-N-yl)-phenyl]-phosphatyl) 8-chloroadenosine] | 0.1 to 5 |  |  |  |  |  |  |  |  |  |  |  |  |  |  | 
C[C@H](NP(=O)(OC[C@H]1O[C@@H](n2c(Cl)nc3c(N)ncnc32)[C@H](O)[C@@H]1O)Oc1ccccc1)C(=O)OCc1ccccc1 (mixture of isomers) [C, (2S)-Benzyl 2-(((((2R,3S,4R,5R)-5-(6-amino-8-chloro-9H-purin-9-yl)-3,4-dihydroxy-tetrahydrofuran-2-yl)methoxy)(phenoxy)phosphoryl)amino)propanoate] | 0.1 to 5 |  |  |  |  |  |  |  |  |  |  |  |  |  |  | 
Nc1ncnc2c1nc(Cl)n2[C@@H]1O[C@H](COP(=O)(NCC(=O)OCc2ccccc2)Oc2ccccc2)[C@@H](O)[C@H]1O (mixture of isomers) [Compound B, Benzyl 2-(((((2R,3S,4R,5R)-5-(6-amino-8-chloro-9H-purin-9-yl)-3,4-dihydroxytetra-hydrofuran-2-yl)methoxy)(phenoxy)phosphoryl)amino)acetate] | 0.1 to 5 | 0.49 | did not produce significant difference | did not produce significant difference |  | did not produce significant difference |  | 63.9 | 14.6 | 8.76 | 2.86 |  | 12.8 | 16.3 |  | 
